In patent publication US10689343B2, “Inhibitors of tryptophan 2,3-dioxygenase” (NETHERLANDS TRANSLATIONAL RESEARCH CENTER B.V., priority 2016, dated 2020):
Several values for one entry are separate records, joined by “and”; a condition that tells them apart may be missing. Equal values may be shown once.

Legend:
[1] = molecular target: T1, TDO in SW48 colorectal carcinoma cells (Homo sapiens, UniProt P48775); assay: Cell-based assay for TDO in SW48 colorectal carcinoma cells (NFK GreenScreen); settings: 18 hours with L-tryptophan, read-out: IC50 on TDO in cells
T1 construct: Endogenous expression of TDO has been determined in a variety of cancer cell lines; host or cells: SW48 colorectal carcinoma cells
T1 sequence (P48775 whole entry): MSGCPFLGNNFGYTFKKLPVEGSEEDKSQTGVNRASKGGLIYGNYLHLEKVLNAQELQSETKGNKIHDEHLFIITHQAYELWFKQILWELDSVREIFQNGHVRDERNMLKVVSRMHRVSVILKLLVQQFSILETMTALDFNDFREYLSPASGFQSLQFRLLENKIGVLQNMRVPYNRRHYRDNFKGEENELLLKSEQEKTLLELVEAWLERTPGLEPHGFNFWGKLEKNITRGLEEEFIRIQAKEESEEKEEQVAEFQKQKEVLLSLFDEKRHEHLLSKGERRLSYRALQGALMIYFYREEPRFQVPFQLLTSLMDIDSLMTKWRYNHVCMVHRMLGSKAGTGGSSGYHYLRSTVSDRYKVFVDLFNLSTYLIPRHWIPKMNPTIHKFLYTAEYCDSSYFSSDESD
Method: The biological activity of TDO inhibitors can be measured by applying above detection methods to cells that are treated with test compound. Endogenous expression of TDO has been determined in a variety of cancer cell lines (Pilotte et al.; Seegers, et al.), or TDO can be expressed in cells that lack endogenous TDO by transfection of an expression vector containing TDO cDNA. […] A preferred assay is the cell-based NFK GreenScreen™ assay (Seegers et al, supra), which measures the cellular inhibitory activity of compounds on TDO. […] No. V9920). Cell-Based Assay for TDO The NFK GreenScreen™ assay technology was also used to determine the inhibitory activity of compounds on TDO in SW48 colorectal carcinoma cells (Seegers, N., et al., J. Biol. Screen. 19: 1266; 2014). […] Compounds were dissolved in DMSO and diluted in RPMI 1640. Final DMSO concentration in the assay was 0.4% (v/v). Eight thousand cells per well in 40 μl were seeded in a black 384-well tissue plate (cat. No. 781086; […] To determine NFK levels, 12 μl NFK Green™ (NTRC, Oss, The Netherlands) was added to each well, and the plate was sealed and incubated for 4 hours at 37° C. Fluorescence was measured on an EnVision multimode reader (Perkin Elmer, Waltham, Mass., USA).

[2] = molecular target: T2, Recombinant TDO (Homo sapiens, UniProt P48775); assay: Biochemical assay for TDO (NFK GreenScreen); settings: 50 nM TDO, 200 μM L-tryptophan
T2 construct: Recombinant TDO (Seegers, N., et al.) and all other assay components were diluted in TDO reaction buffer
T2 sequence (P48775 whole entry): as above
Method: Biochemical Assay for TDO
The NFK GreenScreen™ assay technology was also used to determine the inhibitory activity of compounds on TDO (Seegers, N., et al., J. Biol. Screen. 19: 1266; 2014). Compounds were serially diluted in DMSO and finally in TDO reaction buffer, consisting of 100 mM NaH2PO4, pH 7.0, supplemented with 0.02% Tween-20 (cat. No. P7949; Sigma Aldrich). Recombinant TDO (Seegers, N., et al.) and all other assay components were diluted in TDO reaction buffer. 10 μl of compound solution and 20 μl of enzyme solution supplemented with 200 μM ascorbic acid were combined in the well of a black 384-well plate (cat. no. 3573; Corning, Corning, N.Y., USA), and incubated for 60 min at room temperature. Subsequently, 10 μl of 0.8 mM of the substrate L-tryptophan was added, i.e., the final concentration of L-tryptophan was 200 μM. The DMSO concentration in the assay was 0.3%. The concentration of TDO was 50 nM. Incubation was continued for 15 min at room temperature. Then, 10 μl of NFK Green™ (NTRC, Oss, The Netherlands) was added, the plate was sealed, and the reaction was developed for 3 hours at 37° C. To determine the production of N-formyl kynurenine (NFK), the seal was removed and fluorescence was read on an EnVision multimode reader (Perkin Elmer, Waltham, Mass., USA). IC50 were calculated using XLfit™ software (ID Business Solutions, Ltd., Surrey, U.K.).

[3] = molecular target: CYP2D6 (Homo sapiens, UniProt P10635); assay: P450-Glo CYP2D6 Luc-IP assay
Chain of CYP2D6 (P10635 whole entry): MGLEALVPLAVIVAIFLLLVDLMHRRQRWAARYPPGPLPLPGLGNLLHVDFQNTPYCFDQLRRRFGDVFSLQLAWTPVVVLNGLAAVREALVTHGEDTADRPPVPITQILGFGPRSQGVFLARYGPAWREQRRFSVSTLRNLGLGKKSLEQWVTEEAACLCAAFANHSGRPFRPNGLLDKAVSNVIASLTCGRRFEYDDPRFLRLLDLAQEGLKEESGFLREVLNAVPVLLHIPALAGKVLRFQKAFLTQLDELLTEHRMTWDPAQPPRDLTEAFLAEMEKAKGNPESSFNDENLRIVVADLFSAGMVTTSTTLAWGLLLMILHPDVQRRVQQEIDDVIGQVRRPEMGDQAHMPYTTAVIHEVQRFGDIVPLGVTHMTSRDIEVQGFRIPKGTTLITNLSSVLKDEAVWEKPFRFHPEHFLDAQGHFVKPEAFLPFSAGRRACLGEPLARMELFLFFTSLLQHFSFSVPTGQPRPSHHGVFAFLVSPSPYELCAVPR

[4] = molecular target: CYP3A4 (Homo sapiens, UniProt P08684); assay: P450-Glo CYP3A4 luciferin isopropylacetal (Luc-IP) assay
Chain of CYP3A4 (P08684 whole entry): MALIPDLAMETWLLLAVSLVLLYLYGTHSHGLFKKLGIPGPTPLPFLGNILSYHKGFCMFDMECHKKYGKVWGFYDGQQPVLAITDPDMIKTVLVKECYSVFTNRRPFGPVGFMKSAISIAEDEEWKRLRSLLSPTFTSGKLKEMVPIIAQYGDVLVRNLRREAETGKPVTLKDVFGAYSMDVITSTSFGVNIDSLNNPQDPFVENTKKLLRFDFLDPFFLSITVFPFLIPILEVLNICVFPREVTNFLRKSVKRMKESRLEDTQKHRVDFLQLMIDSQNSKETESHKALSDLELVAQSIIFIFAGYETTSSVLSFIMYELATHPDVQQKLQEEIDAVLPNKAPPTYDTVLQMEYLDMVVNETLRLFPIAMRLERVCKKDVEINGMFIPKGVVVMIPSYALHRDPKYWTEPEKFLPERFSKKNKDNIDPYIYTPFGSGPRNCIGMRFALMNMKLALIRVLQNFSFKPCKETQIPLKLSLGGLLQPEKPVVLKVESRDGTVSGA
Excerpt: To determine the inhibitory potency of compounds on CYP3A4 enzyme, the P450-Glo CYP3A4 luciferin isopropylacetal (Luc-IP) assay was used (Promega, Madison, Wis., USA, Cat. No. V9920). The assay makes use of a luminogenic isopropylacetal (IPA) substrate that is a derivative from beetle luciferin, a substrate of luciferase enzymes. The IPA substrate is converted by CYP3A4 to luciferin, which in turn reacts with luciferase to produce an amount of light that is directly proportional to the activity of CYP3A4. Compounds were serially diluted in DMSO and finally in 400 mM K2HPO4, pH 7.4. 5 μl of compound solution and 5 μl of CYP3A4/substrate solution were combined in the well of a white 384-well Optiplate (Perkin Elmer). The DMSO concentration in the assay was 0.1%. After incubation for 10 minutes at room temperature in the dark, 10 μl of NADPH regeneration system was added and incubation was continued for 10 min. Then, 20 μl of Luciferin Detection Reagent was added to stop the reaction, and incubation was continued for another 20 min. Luminescence was measured on an Envision multimode reader and IC50 values were calculated using XLfit™. […] Instead of in a 96-well plate, the assay was performed in 384-well white Perkin Elmer Optiplate (cat. no. 6007290).

Row | IC50 [1] | IC50 [2] | IC50 [3] | IC50 [4] | Structure (SMILES)
1 | ≤ 0.2 µM | < 1 µM | > 10 µM | > 10 µM | CCN(CC)CC(C)NC(=O)c1ccc(-c2c[nH]c3cc(F)ccc23)cc1OC (stereo not drawn) [Example 79, N-[2-(diethylamino)-1-methyl-ethyl]-4-(6-fluoro-1H-indol-3-yl)-2-methoxy-benzamide]
2 | ≤ 0.2 µM | < 1 µM | > 10 µM | > 10 µM | O=C(NC[C@@H]1CCCN1)c1ccc(-c2c[nH]c3cc(F)ccc23)cc1 [Example 84, 4-(6-Fluoro-1H-indol-3-yl)-N-[[(2S)-pyrrolidin-2-yl]methyl]benzamide]
3 | ≤ 0.5 µM and 0.2 to 0.5 µM |  | > 10 µM | > 10 µM | Cn1cc(CCC(=O)Nc2ccc(-c3c[nH]c4cc(F)ccc34)cc2)cn1 [Example 107, N-[4-(6-fluoro-1H-indol-3-yl)phenyl]-3-(1-methylpyrazol-4-yl)propanamide]
4 | ≤ 0.5 µM and 0.2 to 0.5 µM | < 1 µM | > 10 µM | > 10 µM | C[C@H](CO)NC(=O)c1ccc(-c2c[nH]c3cc(F)ccc23)cc1F [Example 129, 2-Fluoro-4-(6-fluoro-1H-indol-3-yl)-N-[(1R)-2-hydroxy-1-methyl-ethyl]benzamide]
5 | ≤ 0.5 µM and 0.2 to 0.5 µM | < 1 µM | > 10 µM | > 10 µM | CN1CCN(CC(=O)Nc2ccc(-c3c[nH]c4cc(F)ccc34)cc2)CC1 [Example 109, N-[4-(6-fluoro-1H-indol-3-yl)phenyl]-2-(4-methylpiperazin-1-yl)acetamide]
6 | ≤ 0.2 µM | < 1 µM | > 10 µM | 5 to 10 µM | CC(CN(C)C)NC(=O)c1ccc(-c2c[nH]c3cc(F)ccc23)cc1Cl (stereo not drawn) [Example 82, 2-Chloro-N-[2-(dimethylamino)-1-methyl-ethyl]-4-(6-fluoro-1H-indol-3-yl)benzamide]
7 | ≤ 0.5 µM and 0.2 to 0.5 µM | < 1 µM | > 10 µM | 5 to 10 µM | O=C(NC[C@@H]1CCCNC1)c1ccc(-c2c[nH]c3cc(F)ccc23)cc1 [Example 42, 4-(6-Fluoro-1H-indol-3-yl)-N-[[(3R)-3-piperidyl]methyl]benzamide]
8 | ≤ 0.2 µM | < 1 µM | > 10 µM | > 10 µM | O=C(NCC1(F)CCNCC1)c1ccc(-c2c[nH]c3cc(F)ccc23)cc1 [Example 76, 4-(6-Fluoro-1H-indol-3-yl)-N-[(4-fluoro-4-piperidyl)methyl]benzamide]
9 | ≤ 0.2 µM | < 1 µM | 5 to 10 µM | 5 to 10 µM | CN1CCN(CCCNC(=O)c2ccc(-c3c[nH]c4cc(F)ccc34)cc2Cl)CC1 [Example 72, 2-Chloro-4-(6-fluoro-1H-indol-3-yl)-N-[3-(4-methylpiperazin-1-yl)propyl]benzamide]
10 | ≤ 0.5 µM and 0.2 to 0.5 µM | < 1 µM | > 10 µM | > 10 µM | O=C(N[C@H]1CCC[C@@H]1O)c1ccc(-c2c[nH]c3cc(F)ccc23)cc1 [Example 87, 4-(6-Fluoro-1H-indol-3-yl)-N-[(1S,2S)-2-hydroxycyclopentyl]benzamide]
11 | ≤ 0.5 µM and 0.2 to 0.5 µM |  | > 10 µM | > 10 µM | CS(=O)(=O)N1CCCC(NC(=O)c2ccc(-c3c[nH]c4cc(F)ccc34)cc2)C1 (stereo not drawn) [Example 120, 4-(6-Fluoro-1H-indol-3-yl)-N-(1-methylsulfonyl-3-piperidyl)benzamide]
12 |  | 1 to 5 µM | > 10 µM | > 10 µM | C[C@H](NC(=O)c1ccc(-c2c[nH]c3cc(F)ccc23)cc1)C(C)(C)C [Example 88, 4-(6-Fluoro-1H-indol-3-yl)-N-[(1S)-1,2,2-trimethylpropyl]benzamide]
13 |  | 1 to 5 µM | > 10 µM | > 10 µM | O=C(CC1CC1)Nc1ccc(-c2c[nH]c3cc(F)ccc23)cc1 [Example 28, 2-Cyclopropyl-N-[4-(6-fluoro-1H-indol-3-yl)phenyl]acetamide]
14 |  | < 1 µM | > 10 µM | > 10 µM | CN(C)CCCNC(=O)c1ccc(-c2c[nH]c3ccc(F)cc23)cc1 [Example 38, N-[3-(dimethylamino)propyl]-4-(5-fluoro-1H-indol-3-yl)benzamide]
